Results as given in US20070212712A1, “Methods for identifying modulators of hedgehog autoprocessing” (priority 2005, published 2007).

System: Shh-N signaling
Experiment: Autoprocessing-independent Shh-N signaling assay (Gli-luciferase, control)
Type: cell-based, mouse
Conditions: 1 μM KAAD-cyclopamine
Experimental: This cell-based assay (FIGS. 1A and 1B) made use of Hh-responsive 3T3 mouse cells stably transfected with a Shh plasmid expressing full length Shh protein that undergoes autoprocessing to produce functionally active Shh protein. Cells incubated with pre-spliced N-Shh protein were used as a control. Shh signaling was assayed in control and treated cells using with dual luciferase reporter assay of luciferase activity expressed from an integrated copy of a Gli-luciferase reporter gene linked to of 8 tandem repeats of Gli transcription factor-binding sites, normalized to activity of a Renilla gene under the control of minimum TK promoter, to monitor toxicity and cell survival. Inhibition was confirmed by Western blot analysis of Hh autoprocessing (FIG. 2). Additional cell-based assays for testing the activities of candidate Hh autoprocessing inhibitors in blocking full-length Hh signaling include the measurement of Hh target gene expression (Patched, Gli , IGF2, N-myc; for example, via a luciferase-based assay) and chondrocyte differentiation of 10T½ cells. Persons skilled in the art will note that the above assays are also suitable for use in a cell-free assay system.

SMILES: CC1=C2C[C@H]3[C@@H](CC=C4CC(=O)CC[C@@]43C)[C@@H]2CC[C@]12O[C@@H]1C[C@H](C)CN(CCNC(=O)CCCCCNC(=O)CCc3ccccc3)[C@H]1[C@H]2C [KAAD-cyclopamine]
- Effect on Gli-luciferase activity in response to Shh-N: inhibited Gli-luciferase activity
